Experimental data from publication PMC8952214 (Pharmaceuticals, 2022).
Read-outs that look alike come from different tables or passages of the source.

Assays:
[1] = system: A/Parma/24/09 H1N1 (Brisbane-like) oseltamivir-resistant virus; type: biochemical, Influenza A virus; details: Table 2; turkey erythrocytes; dash = not active
[2] = system: A/Parma/24/09 H1N1 (Brisbane-like) oseltamivir-resistant virus; assay: microbe, parasite or virus in culture; type: cell-based, Influenza A virus; details: for EC50: Influenza A virus, H1N1, MDCK, 48 h, read-out: EC50 A/Parma H1N1
[3] = system: A/Parma/24/09 H1N1 (Brisbane-like) oseltamivir-resistant virus; details: Table 1; turkey erythrocytes; cited from earlier work
[4] = system: A/Parma/24/09 H1N1 (Brisbane-like) oseltamivir-resistant virus; details: MDCK cells, c.p.e. by neutral red, 48 h; cited from earlier work

| SMILES | HI Titer A/Parma H1N1 [1] | further results |
| --- | --- | --- |
| CCc1ccc(NC(=O)C(C)OC(=O)c2ccc3ccccc3n2)cc1 (stereo not shown) [Compound 10] | 0.012 pM | – |
| O=C(COC(=O)c1ccccn1)Nc1ccc2c(c1)CCC2 [Compound 24] | 0.047 pM | – |
| COc1ccc(S(=O)(=O)NCc2ccc(-n3ccnc3)cc2)cc1F [Compound 25] | 0.012 pM | SI (selectivity index) = CC50/EC50, A/Parma H1N1 [2]: 0.44 × 10^2; EC50 [2]: 700 nM |
| Cc1nc(-c2cccc(NC(=O)COC(=O)c3ccc4ccccc4n3)c2)cs1 [Compound 26] | 0.047 pM | – |
| O=C(COC(=O)c1ccccn1)Nc1ccc(-c2ccccc2)cc1 [Compound 20] | 0.012 pM | – |
| O=C1CCCN1c1ccc(CNS(=O)(=O)c2ccc(F)cc2)cc1 [Compound 23] | 0.012 pM | – |
| Cc1ccc2nc(CNc3ccc(C)c(Cl)c3)cc(=O)n2c1 [Compound 5] | – | HI Titer A/Parma H1N1 [3]: 0.48 µM |
| COc1ccc(C(=O)Nc2cccc(S(=O)(=O)NCc3ccco3)c2)cc1 [Compound 3] | – | HI Titer A/Parma H1N1 [3]: 0.48 µM |
| N#Cc1ccc(NC(=O)COC(=O)c2ccccn2)cc1 [Compound 7] | 0.012 pM | SI (selectivity index) = CC50/EC50, A/Parma H1N1 [2]: 0.34 × 10^2; EC50 [2]: 900 nM |
| O=C(OCC(=O)N(c1ccccc1)C1CCCCC1)c1ccc2ccccc2n1 [Compound 14] | 0.012 pM | – |
| CC(NS(=O)(=O)c1ccccc1)c1ccc(-c2ccccc2)cc1 (stereo not shown) [Compound 17] | 0.012 pM | – |
| O=C(COC(=O)c1ccc2ccccc2n1)Nc1ccccc1-c1ccccc1 [Compound 12] | 0.012 pM | – |
| Fc1ccc(CNc2ncnc3[nH]cnc23)cc1 [Compound 2] | – | HI Titer A/Parma H1N1 [3]: 0.48 µM |
| Cc1ccc(S(=O)(=O)Nc2ccc(-n3ccnc3)c(Cl)c2)cc1 [Compound 28] | 0.047 pM | – |
| Cc1ccc(F)cc1NC(=O)COC(=O)c1ccc2ccccc2n1 [Compound 4] | – | HI Titer A/Parma H1N1 [3]: 0.48 µM; EC50 [4]: 125 nM |
| O=C(COC(=O)c1ccc2ccccc2n1)Nc1ccc2c(c1)OCCO2 [Compound 11] | 0.012 pM | – |
| O=C(OCC(=O)N1CCc2ccccc21)c1ccccn1 [Compound 8] | 0.012 pM | – |
| CN(C(=O)COC(=O)c1ccc2ccccc2n1)c1ccccc1 [Compound 9] | 0.012 pM | – |
| Cc1ccc(NC(=O)COC(=O)c2ccccn2)cc1F [Compound 13] | 0.012 pM | SI (selectivity index) = CC50/EC50, A/Parma H1N1 [2]: 0.44 × 10^2; EC50 [2]: 700 nM |
| O=C(CC1(O)C(=O)Nc2ccccc21)c1ccccn1 (stereo not shown) [Compound 6] | 0.012 pM | SI (selectivity index) = CC50/EC50, A/Parma H1N1 [2]: 0.34 × 10^2; EC50 [2]: 900 nM |
| CC(=O)Nc1ccc(S(=O)(=O)NC(C)c2ccc(-n3ccnc3)cc2)cc1 (stereo not shown) [Compound 16] | 0.012 pM | – |
| Cc1ccc(S(=O)(=O)NC(C)c2ccc(-n3ccnc3)cc2)cc1C (stereo not shown) [Compound 1] | – | HI Titer A/Parma H1N1 [3]: 0.48 µM; EC50 [4]: 125 nM |
| COc1ccc(NC(=O)COC(=O)c2ccc3c(c2)CCC(=O)N3)cc1 [Compound 19] | 0.012 pM | – |
| Nc1cc(F)ccc1C(=O)OCC(=O)Nc1ccccc1 [Compound 18] | 0.012 pM | – |
